Test results published in US20130196986A1 (priority 2010, published 2013).
pIC50: −log10 of the molar value.

Target: T1, P2X7 receptor (Homo sapiens, UniProt Q99572)
T1 construct: stably expressing the full length P2X7 receptor; expressed in transfected cells
T1 sequence (Q99572 1-595): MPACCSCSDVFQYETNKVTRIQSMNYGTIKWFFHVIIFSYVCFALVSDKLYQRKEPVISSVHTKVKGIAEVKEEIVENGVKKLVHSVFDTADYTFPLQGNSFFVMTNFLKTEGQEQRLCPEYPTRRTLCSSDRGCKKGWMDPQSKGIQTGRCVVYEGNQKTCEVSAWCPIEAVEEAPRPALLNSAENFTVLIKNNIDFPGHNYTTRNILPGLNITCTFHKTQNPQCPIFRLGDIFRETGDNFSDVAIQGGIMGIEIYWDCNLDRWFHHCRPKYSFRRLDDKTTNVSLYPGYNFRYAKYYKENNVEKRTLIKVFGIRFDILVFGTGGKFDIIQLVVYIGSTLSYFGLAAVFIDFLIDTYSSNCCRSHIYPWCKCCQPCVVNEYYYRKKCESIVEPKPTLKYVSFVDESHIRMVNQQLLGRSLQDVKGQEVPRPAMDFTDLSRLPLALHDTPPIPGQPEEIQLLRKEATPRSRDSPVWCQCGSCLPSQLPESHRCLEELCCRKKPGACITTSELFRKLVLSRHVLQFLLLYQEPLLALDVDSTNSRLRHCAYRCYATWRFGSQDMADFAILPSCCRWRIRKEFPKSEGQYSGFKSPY
Test: Ca++ flux assay (FLIPR) in P2X7-HEK-293 cell line stably expressing the full length P2X7 receptor, Bz-ATP activation
Assay type: cell-based
Conditions: P2X7-HEK-293 cells; agonist Bz-ATP; fluorescence as total area over 90 seconds; read-out: P2X7 Ca Flux hu IC50
Protocol: The ability of Triazolopyrazinone Compounds to inhibit P2X7 function can be determined in Ca^++ flux assay using a P2X7-HEK-293 cell line stably expressing the full length P2X7 receptor. The assay protocol is as described in Cheewatrakoolpong et al., Biochem. Biophys. Res. Commun. 332:17-27 (2005) with minor modification, and is as summarized hereinafter. Briefly, cells were plated in poly-D-lysine-coated wells, and incubated at 37° C. for 24 hours. Cells were then incubated for 1 hour with a loading buffer which contains a dye sensitive to changes in Ca^++ concentration (lx Calcium Plus no wash dye from Molecular Devices, Sunnyvale, Calif.). The test compounds were added to the wells in the dye loading step. Plates containing the wells were transferred to a Fluorometric Imaging Plate Reader (Molecular Devices, Sunnyvale, Calif.). The cells were activated by the addition of the P2X7 receptor agonist 2′(3) —O-(4-benzoylbenzoyl)adenosine 5′-triphosphate (Bz-ATP from Sigma-Aldrich, St. Louis, Mo.), and the fluorescence was monitored for 90 seconds. The fluorescent signal was determined as the total area over the 90 second run time. Using this protocol, representative Triazolopyrazinone Compounds, compounds 1471 were tested. Tables 3 to 6 show the concentration at which 50% of the maximum response in the Ca^++ was inhibited (IC50) for each of the test compounds.

Compound	pIC50
O=c1c2nnc(SCc3ccccc3)n2ccn1-c1cccc(C(F)(F)F)c1F [Compound 59, 3-(benzylthio)-7-(2-fluoro-3-(trifluoromethyl)phenyl)-[1,2,4]triazolo[4,3-a]pyrazin-8(7H)-one]	6.34
O=c1c2nnc(SCc3cc(Cl)cc(Cl)c3)n2ccn1-c1cccc(C(F)(F)F)c1Cl [Compound 60, 7-(2-chloro-3-(trifluorornethyl)phenyl)-3-(3,5-dichlorobenzylthio)-[1,2,4]triazolo[4,3-a]pyrazin-8(7H)-one]	7.04
O=c1c2nnc(SCc3ccccc3)n2ccn1-c1cccc(C(F)(F)F)c1Cl [Compound 61, 3-(benzylthio)-7-(2-chloro-3-(trifluoromethyl)phenyl)-[1,2,4]triazolo[4,3-a]pyrazin-8(7H)-one]	7.35
Cc1c(-n2ccn3c(SC(C)c4ccccc4)nnc3c2=O)cccc1C(F)(F)F (stereo not shown) [Compound 62, 7-(2-methyl-3-(trifluoromethyl)phenyl)-3-(1-phenylethylthio)-[1,2,4]triazolo[4,3-a]pyrazin-8(7H)-one]	7.24
Cc1c(Cl)cccc1-n1ccn2c(SCc3cccc(Cl)c3F)nnc2c1=O [Compound 63, 3-(3-chloro-2-fluorobenzylthio)-7-(3-chloro-2-methylphenyl)-[1,2,4]triazolo[4,3-a]pyrazin-8(7H)-one]	5.60
Cc1c(Cl)cccc1-n1ccn2c(SCc3cc(Cl)ccc3F)nnc2c1=O [Compound 64, 3-(5-chloro-2-fluorobenzylthio)-7-(3-chloro-2-methylphenyl)-[1,2,4]triazolo[4,3-a]pyrazin-8(7H)-one]	6.12
O=c1c2nnc(SCc3ccccc3)n2ccn1-c1cccc(F)c1Cl [Compound 65, 3-(benzylthio)-7-(2-chloro-3-fluorophenyl)-[1,2,4]triazolo[4,3-a]pyrazin-8(7H)-one]	6.72
Cc1c(Cl)cccc1-n1ccn2c(SCc3cccc(Cl)c3Cl)nnc2c1=O [Compound 66, 7-(3-chloro-2-methylphenyl)-3-(2,3-dichlorobenzylthio)-[1,2,4]triazolo[4,3-a]pyrazin-8(7H)-one]	6.49
O=c1c2nnc(SCc3cc(Cl)cc(Cl)c3)n2ccn1-c1cccc(Cl)c1Cl [Compound 67, 3-(3,5-dichlorobenzylthio)-7-(2,3-dichlorophenyl)-[1,2,4]triazolo[4,3-a]pyrazin-8(7H)-one]	6.77
Cc1c(Cl)cccc1-n1ccn2c(SCc3c(F)cccc3C(F)(F)F)nnc2c1=O [Compound 68, 7-(3-chloro-2-methylphenyl)-3-(2-fluoro-6-(trifluoromethyl)benzylthio)-[1,2,4]triazolo[4,3-a]pyrazin-8(7H)-one]	6.32
Cc1c(-n2ccn3c(SCc4cc(Cl)cc(Cl)c4)nnc3c2=O)cccc1C(F)(F)F [Compound 69, 3-(3,5-dichlorobenzylthio)-7-(2-methyl-3-(trifluoromethyl)phenyl)-[1,2,4]triazolo[4,3-a]pyrazin-8(7H)-one]	6.73
Cc1c(Cl)cccc1-n1ccn2c(SCc3ccccc3OC(F)(F)F)nnc2c1=O [Compound 70, 7-(3-chloro-2-methylphenyl)-3-(2-(trifluoromethoxy)benzylthio)-[1,2,4]triazolo[4,3-a]pyrazin-8(7H)-one]	6.95
Cc1c(Cl)cccc1-n1ccn2c(SCc3ccccc3Br)nnc2c1=O [Compound 71, 3-(2-bromobenzylthio)-7-(3-chloro-2-methylphenyl)-[1,2,4]triazolo[4,3-a]pyrazin-8(7H)-one]	6.85
Cc1c(Cl)cccc1-n1ccn2c(SCc3cc(Cl)ccc3Cl)nnc2c1=O [Compound 72, 7-(3-chloro-2-methylphenyl)-3-(2,5-dichlorobenzylthio)-[1,2,4]triazolo[4,3-a]pyrazin-8(7H)-one]	5.50
Cc1cccc(CSc2nnc3c(=O)n(-c4cccc(Cl)c4C)ccn23)c1 [Compound 73, 7-(3-chloro-2-methylphenyl)-3-(3-methylbenzylthio)-[1,2,4]triazolo[4,3-a]pyrazin-8(7H)-one]	6.36
Cc1c(Cl)cccc1-n1ccn2c(SCc3ccccc3I)nnc2c1=O [Compound 74, 7-(3-chloro-2-methylphenyl)-3-(2-iodobenzylthio)-[1,2,4]triazolo[4,3-a]pyrazin-8(7H)-one]	6.58

Compound	pIC50
Cc1c(Cl)cccc1-n1ccn2c(SCc3c(Cl)cccc3Cl)nnc2c1=O [Compound 75, 7-(3-chloro-2-methylphenyl)-3-(2,6-dichlorobenzylthio)-[1,2,4]triazolo[4,3-a]pyrazin-8(7H)-one]	6.55
Cc1c(Cl)cccc1-n1ccn2c(SCc3cccc(I)c3)nnc2c1=O [Compound 77, 7-(3-chloro-2-methylphenyl)-3-(3-iodobenzylthio)-[1,2,4]triazolo[4,3-a]pyrazin-8(7H)-one]	6.34
Cc1c(Cl)cccc1-n1ccn2c(SCc3cc(Cl)cc(C(F)(F)F)c3)nnc2c1=O [Compound 78, 7-(3-chloro-2-methylphenyl)-3-(3-chloro-5-(trifluoromethyl)benzylthio)-[1,2,4]triazolo[4,3-a]pyrazin-8(7H)-one]	6.22
COc1cc(CSc2nnc3c(=O)n(-c4cccc(Cl)c4C)ccn23)cc(OC)c1 [Compound 79, 7-(3-chloro-2-methylphenyl)-3-(3,5-dimethoxybenzylthio)-[1,2,4]triazolo[4,3-a]pyrazin-8(7H)-one]	5.88
COc1c(Cl)cccc1-n1ccn2c(SCc3ccccc3)nnc2c1=O [Compound 80, 3-(benzylthio)-7-(3-chloro-2-methoxyphenyl)-[1,2,4]triazolo[4,3-a]pyrazin-8(7H)-one]	6.27
O=c1c2nnc(SCc3ccccc3)n2ccn1-c1ccccc1Cl [Compound 81, 3-(benzylthio)-7-(2-chlorophenyl)-[1,2,4]triazolo[4,3-a]pyrazin-8(7H)-one]	6.02
O=c1c2nnc(SCc3ccccc3)n2ccn1-c1cccc(Cl)c1F [Compound 82, 3-(benzylthio)-7-(3-chloro-2-fluorophenyl)-[1,2,4]triazolo[4,3-a]pyrazin-8(7H)-one]	6.43
Cc1c(Br)cccc1-n1ccn2c(SCc3cc(Cl)cc(Cl)c3)nnc2c1=O [Compound 83, 7-(3-brorno-2-methylphenyl)-3-(3,5-dichlorobenzylthio)-[1,2,4]triazolo[4,3-a]pyrazin-8(7H)-one]	6.07
Cc1c(Cl)cccc1-n1ccn2c(SCc3cccc(OC(F)(F)F)c3)nnc2c1=O [Compound 85, 7-(3-chloro-2-methylphenyI)-3-(3-(trifluoromethoxy)benzylthio)-[1,2,4]triazolo[4,3-a]pyrazin-8(7H)-one]	6.30
Cc1c(Cl)cccc1-n1ccn2c(SCc3cccc(Br)c3)nnc2c1=O [Compound 86, 3-(3-bromobenzylthio)-7-(3-chloro-2-methylphenyl)-[1,2,4]triazolo[4,3-a]pyrazin-8(7H)-one]	6.35
Cc1c(Cl)cccc1-n1ccn2c(SCc3ccccc3C#N)nnc2c1=O [Compound 87, 2((7-(3-chloro-2-methylphenyl)-8-oxo-7,8-dihydro-[1,2,4]triazolo[4,3-a]pyrazin-3-ylthio)methyl)benzonitrile]	6.36
Cc1c(Cl)cccc1-n1ccn2c(SCc3cc(C(F)(F)F)cc(C(F)(F)F)c3)nnc2c1=O [Compound 88, 3-(3,5-bis(trifluoromethyl)benzylthio)-7-(3-chloro-2-methylphenyl)-[1,2,4]triazolo[4,3-a]pyrazin-8(7H)-one]	5.08
Cc1c(Cl)cccc1-n1ccn2c(SCc3cccc(C(F)(F)F)c3)nnc2c1=O [Compound 89, 7-(3-chloro-2-methylphenyl)-3-(3-(trifluoromethyl)benzylthio)-[1,2,4]triazolo[4,3-a]pyrazin-8(7H)-one]	6.24
COC(=O)c1ccccc1CSc1nnc2c(=O)n(-c3cccc(Cl)c3C)ccn12 [Compound 90, methyl 2-((7-(3-chloro-2-methylphenyl)-8-oxo-7,8-dihydro-[1,2,4]triazolo[4,3-a]pyrazin-3-ylthio)methyl)benzoate]	6.19
COC(=O)c1cccc(CSc2nnc3c(=O)n(-c4cccc(Cl)c4C)ccn23)c1 [Compound 91, methyl 3-((7-(3-chloro-2-methylphenyl)-8-oxo-7,8-dihydro-[1,2,4]triazolo[4,3-a]pyrazin-3-ylthio)methyl)benzoate]	5.49
